{"source": "patent US10519132B2", "about": "“Isocorydine derivatives, preparation method and use thereof” (Lanzhou Institute of Chemical Physics, Chinese Academy of …, priority 2017, dated 2019)", "key": {"[1]": {"system": "human liver cancer cell strain HepG2", "experiment": "MTT growth inhibition on HepG2;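 note: adherent cells in 96-well plates treated with a concentration series for 24, 48 or 72 h, MTT absorbance read at 490 nm, inhibition computed relative to untreated control wells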", "format": "cell-based", "conditions": "Homo sapiens, read-out: IC50 HepG2", "protocol": "(§3) By using an MTT method, a sample solution to be tested was added to a 96-well plate in which cancer cells were adherently grown. Culturing was performed for a certain period, and the growth inhibition effect of a compound on a human cancer cell strain for primary screening was measured to determine the anti-cancer activity of the compound.\n(§4) Cell culture: A cell incubator was set to conditions of 37° C., 5% CO2, and a saturated humidity, cells were cultured under these conditions, and the cell medium was a DMEM complete medium, wherein 10% fetal bovine serum, 100 IU/mL penicillin, and 100 μg/mL streptomycin were comprised.\n(§5) The single cell suspension was diluted to 5×10^3/100 μL after counting, inoculated on a 96-well cell culture plate (triplicate), and adherently cultured overnight;\n(§6) After 24 h of adhesion, the complete medium was discarded, 100 μL-sample-solutions to be tested having different concentrations were sequentially added to the 96-well plate according to a concentration gradient, and incubations were continued for 24 h, 48 h, and 72 h;\n(§7) The culture liquid was discarded, a 0.5 mg/mL MTT diluted working liquid was added, and incubation was performed for 4 h by placing in an incubator;\n(§8) The culture liquid was discarded, 100 μL of DMSO was added, low-speed oscillation was performed for 10 min by placing on a shaker, and the spectrophotometric value of each well was measured at a wavelength of 490 nm by using a microplate reader. Statistical analysis was performed and tumor cell growth inhibition rate was calculated according to the equation: Growth inhibition rate=(OD value of control group−OD value of experimental group)/OD value of control group.\n(§9) Culturing was performed for a certain period, the growth inhibition effect of a compound on 3 human cancer cell strains for primary screening was measured to determine the anti-cancer activity of the compound, and a growth inhibition curve was plotted."}, "[2]": {"system": "human brain glioma U251", "experiment": "MTT growth inhibition on U251", "format": "cell-based", "conditions": "U-251, after 48 h of action", "protocol": "as §3, §4\nThe single cell suspension was diluted to 5×10^3/100 μL after counting, inoculated on a 96-well cell culture plate (triplicate), and adherently cultured overnight; […]\nas §8"}, "[3]": {"system": "C-Myc, Ki-67, CylinD1, β-Catenin protein", "experiment": "Western blotting, protein expression in HepG2 cells", "format": "cell-based, human", "conditions": "sorafenib 4 μg/mL, high FICD dosage 20 μg/mL, combination 4 μg/mL sorafenib+10 μg/mL FICD", "description": "(§1) Method: Gel electrophoresis of protein samples. Gel formulation: All components were added to a small beaker according to a formulation of a separation gel, uniformly mixed with slightly shaking to prevent the generation of bubbles, quickly applied to a seam of a glass plate with a 1 mL pipette, and then blocked with double distilled water to prevent oxidation. After 30 min, the separation gel solidified, the double distilled water thereof was poured off, waster was suctioned with a filter paper, a 5% concentration gel was formulated, TEMED was finally loaded onto the glass plate, and a 1.0 mm comb was inserted into the concentration gel and placed at room temperature for 30 min. The comb was slightly, vertically, and carefully pulled up, various groups of 20 μL protein samples were pipetted with a microsyringe, an equal volume of a loading buffer and an equal volume of a loading buffer containing 3 μL of Marker were separately added to a loading well, an electrophoresis instrument was switched on after electrodes were plugged, gels were run at 75V for 30 min, and the voltage was changed to 120V and gels were run for 2 h when bromophenol blue reaches the separation gel. Membrane transfer: A PVDF membrane having a suitable size was cut according to the size of the gel, placed in a methanol solution for 1 min, lifted, and placed and soaked together with a well cut filter paper in a previously precooled membrane transfer buffer. A sponge pad, three layers of filter paper, a gel, three layers of filter paper, and a sponge pad, in this order from top to bottom, were placed in a membrane transfer tank, and a precooled membrane transfer buffer was then added. Several ice bags were placed circumferentially to prevent an excessively hot external environment, and electrodes were plugged and membrane transfer was performed at a constant current of […] for 2.5 hours. Blocking and incubation of antibodies: A transferred membrane was cut into desired bands, which were placed in a blocking solution of 5% skim milk powder, placed on a shaker, and shaken at room temperature at a low speed for 1 h. A primary antibody was diluted with the blocking solution, a corresponding antibody was pipetted and added to a zip lock bag, the PVDF membrane was then placed in the antibody dilution, bubbles in the zip lock bag were evacuated, and the zip lock bag was sealed and placed in a refrigerator at 4° C. overnight. The membrane was withdrawn from the zip lock bag on the second day, and placed in a clean dish. A TBST solution was added and washed 3 times on a low-speed shaker, 10 min for each time. […]"}, "[4]": {"system": "Vimentin", "experiment": "Western blotting, Vimentin expression in HepG2 cells", "format": "cell-based, human", "conditions": "FICD experiment (FIG. 12)", "description": "as §1"}, "[5]": {"system": "ascites hepatoma H22 induced solid tumor", "experiment": "In vivo tumor growth inhibition in mice bearing H22", "set-up": "species or system white Kunming mice", "conditions": "Table 4, intraperitoneal, 10 d", "source_text": "1. Tumor strain and animal for experiments: H22 liver cancer cell strain was provided by Teaching and Research Office, School of Basic Medical Sciences, Lanzhou University/Key Lab of Preclinical Study for New Drugs of Gansu Province, and was passage and preserved by periodically intraperitoneal inoculation. White Kunming mice (18.0-22.0 g) were provided by Lanzhou Veterinary Institute, Chinese Academy of Agriculture.\n2. Establishment of tumor models and method of grouping: a third passage of mice which were well grown 7 d after intraperitoneal inoculation of H22 tumor cells were sacrificed by cervical dislocation, and placed and soaked in 75% alcohol for 10 min. After 3 mL of sterile physiological saline was intraperitoneally injected, milky tumor cell ascites was withdrawn from the abdominal cavity, and formulated into a tumor cell suspension with sterile physiological saline, with a cell number of 1.5×10^7 mL^−1. 80 white Kunming mice were taken, and 0.2 mL of the tumor cell suspension was subcutaneously inoculated to the left axilla of each mouse. 24 h after the inoculation of tumor cells, the mice were divided into 8 groups according to body weights, 10 mice for each group. […] All of the administration manners were intraperitoneal administration.\n3. Result of experiments: On the second day of modeling, continuous administration was performed for 10 d. Administration was stopped on the 11th d, and mice were sacrificed by cervical dislocation on the next day.\n(§2) Test method: For the test method, see Example 24. Results can be seen in FIG. 15, FIG. 16, and Table 5.\nMethod: Modeling was performed by using the method of establishing H22 white mice tumor-bearing model of Example 24. The in vivo tumor growth inhibition activity of COM33 on H22 model mice was measured in an intraperitoneal injection administration manner."}, "[6]": {"experiment": "In vivo absorption in mice, intragastric versus intraperitoneal administration", "set-up": "species or system white Kunming mice", "conditions": "inferred from no statistical difference between administration manners", "source_text": "The aim of this experiment was to investigate in vivo tumor growth inhibition effect of FICD on white Kunming mice bearing ascites hepatoma H22 induced solid tumor, discuss in vivo absorption of FICD in mice, and investigate the druggability and the selection of administration manners of FICD, among different administration manners (intragastric administration and intraperitoneal injection administration). The specific protocol of investigation was as follows:\nas §2"}, "[7]": {"system": "human gastric cancer cell strain MGC-803", "experiment": "MTT growth inhibition on MGC-803", "conditions": "Homo sapiens", "protocol": "as §3, §4, §5, §6, §7, §8, §9"}}, "note": "Like-named read-outs stand apart in the source and are kept apart here."}
{"smiles": "COc1cc(NC(=O)Nc2ccc(Cl)c(C(F)(F)F)c2)c2c(c1O)-c1c(OC)c(OC)cc3c1C(C2)N(C)CC3", "note": "(stereo not shown) [Compound 1]", "values": [{"measurement": "IC50", "setting": "[1]; HepG2, 48 h, after 48 h of action", "value": "10.1 ± 1.2", "unit": "µg/mL"}, {"measurement": "IC50", "setting": "[1]; HepG2, Table 1, MTT", "value": 17.2, "unit": "µM"}, {"measurement": "IC50", "setting": "[1]; HepG2, Table 2, MTT", "value": 17.2, "unit": "µM"}, {"measurement": "IC50", "setting": "[2]", "value": "16.8 ± 0.28", "unit": "µg/mL"}, {"measurement": "expressions of C-Myc, Ki-67, CylinD1 and β-Catenin protein compared to the blank group", "setting": "[3]", "value": "significantly reduced"}, {"measurement": "Vimentin expression", "setting": "[4]", "value": "significantly increased"}, {"measurement": "Tumor inhibition rate (%)", "setting": "[5]; high FICD dosage 150 mg/Kg", "value": 50.8, "unit": "%"}, {"measurement": "Tumor inhibition rate (%)", "setting": "[5]; low FICD dosage 50 mg/Kg", "value": 39.1, "unit": "%"}, {"measurement": "Tumor inhibition rate (%)", "setting": "[5]; middle FICD dosage 100 mg/Kg", "value": 45.6, "unit": "%"}, {"measurement": "in vivo absorption after oral administration", "setting": "[6]", "value": "well absorbed"}, {"measurement": "IC50", "setting": "[7]; MGC-803, 48 h, read-out: IC50 MGC-803, after 48 h of action", "value": "15.6 ± 2.4", "unit": "µg/mL"}, {"measurement": "IC50", "setting": "[7]; MGC-803, read-out: IC50 MGC-803, Table 1, MTT", "value": 16.6, "unit": "µM"}, {"measurement": "IC50", "setting": "[7]; MGC-803, read-out: IC50 MGC-803, Table 2, MTT", "value": 16.6, "unit": "µM"}]}
